deltapEC50, log(activity) and pKb data for 15 molecules are collected here from ChEMBL document CHEMBL5523758, “Discovery of 2-Methyl-5-(1H-pyrazol-4-yl)pyridines and Related Heterocycles as Promising M4 mAChR Positive Allosteric Modulators for the Treatment of Neurocognitive Disorders” (J Med Chem, 2024).

The pKb is −log10 of the Kb, conventionally taken in molar units.

Experiment [1] has as its target T1, Muscarinic acetylcholine receptor M4 (Homo sapiens) (UniProt P08173).
T1 sequence (whole entry): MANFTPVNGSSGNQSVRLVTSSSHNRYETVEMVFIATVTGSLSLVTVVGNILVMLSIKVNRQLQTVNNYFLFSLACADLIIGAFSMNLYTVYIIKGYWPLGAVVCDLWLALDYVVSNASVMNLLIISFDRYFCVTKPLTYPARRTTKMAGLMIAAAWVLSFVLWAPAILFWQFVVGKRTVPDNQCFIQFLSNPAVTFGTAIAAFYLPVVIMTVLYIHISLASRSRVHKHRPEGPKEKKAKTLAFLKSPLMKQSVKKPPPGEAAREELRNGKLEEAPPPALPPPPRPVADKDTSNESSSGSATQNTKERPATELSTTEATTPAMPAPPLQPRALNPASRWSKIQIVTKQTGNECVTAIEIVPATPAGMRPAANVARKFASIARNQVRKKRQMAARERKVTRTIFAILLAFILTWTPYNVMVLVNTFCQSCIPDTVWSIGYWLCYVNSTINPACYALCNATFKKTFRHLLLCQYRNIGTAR
As to conditions: Flp-In-CHO, dose 10.0 µM, time 8.0 min.

The target of experiment [2] is T1, Muscarinic acetylcholine receptor M4 (Homo sapiens). The following applies: Flp-In-CHO, filed as positive allosteric modulator, time 8.0 min.
The target is the same in experiment [3]. The following applies: Flp-In-CHO, filed as positive allosteric modulator.
Description: Positive allosteric modulation at human M4 mAChR stably expressed in Flp-In-CHO cells co-transfected with CAMYEL biosensor assessed as ACh-induced CAMYEL activation by measuring log of functional co-operativity by BRET assay
Experiment [4] has the same target. As to conditions: Flp-In-CHO.
Description: Positive allosteric modulation at human M4 mAChR stably expressed in Flp-In-CHO cells co-transfected with CAMYEL biosensor assessed as ACh-induced CAMYEL activation by measuring log of operational efficacy by BRET assay
The target is the same in experiment [5]. As to conditions: Flp-In-CHO, filed as positive allosteric modulator, time 8.0 min. The source holds these as a separate data set.
The target is the same in experiment [6]. As to conditions: Flp-In-CHO, filed as positive allosteric modulator, time 8.0 min. The source holds these as a separate data set.
For experiment [7] the target is unchanged. The following applies: Flp-In-CHO, filed as positive allosteric modulator, time 5.0 min.
For experiment [8] the target is unchanged. As to conditions: Flp-In-CHO, time 5.0 min.
Where [9] appears, read: filed as positive allosteric modulator.

SMILES strings stand for the structures.

The molecule `COC(=O)CCCCn1cc(-c2ccc(C)nc2-c2ccc3c(c2)C(=O)N(C)C3)cn1` displayed a deltapEC50 in experiment [1] above 0.4.

As to `Cc1ccc(-c2cnn(CCCCC#N)c2)c(-c2ccc3c(c2)C(=O)N(C)C3)n1`, the log(activity) in experiment [2] came to 1.16; in experiment [3], 1.03; in experiment [4] (setting [9]), 0.28; in experiment [5], 1.93. Moreover, the negative logarithm of the Kb (pKb) in experiment [6] stood at 4.55.

`Cc1ccc(-c2cnn(CCCN)c2)c(-c2ccc3c(c2)C(=O)N(C)C3)n1`: the log(activity) in experiment [2] is 0.85; in experiment [3] it was 0.44; in experiment [4] it was -0.47; in experiment [5] it was 1.56. The same molecule registered a pKb in experiment [6] of 4.79.

As to `Cc1ncc(-c2cnn(CC3CCCC3)c2)c(-c2ccc3c(c2)C(=O)N(C)C3)n1`, the log(activity) in experiment [2] came out at 1.3; in experiment [3], 0.74; in experiment [4] (setting [9]), 0.1; in experiment [5] it was 1.92. This molecule also registered a pKb in experiment [6] of 4.71.

`Cc1ccc(-c2cnn(CC3CCCC3)c2)c(-c2ccc3c(c2)C(=O)NC3)n1`: the log(activity) in experiment [2] was determined as 1.72; in experiment [3], 1.07; in experiment [4] (setting [9]) it was 0.5; in experiment [5], 2.15. The molecule further showed a pKb in experiment [6] of 5.65.

Molecule `Cc1ccc(-c2cnn(CCCC(=O)O)c2)c(-c2ccc3c(c2)C(=O)N(C)C3)n1` registered a deltapEC50 in experiment [1] above 0.4.

For `CN1Cc2ccc(-c3nc4ccccc4cc3-c3cnn(CC4CCCC4)c3)cc2C1=O`, the log(activity) was 1.92 in experiment [7]; 1.56 in experiment [2]; 1.99 in experiment [3]; 0.84 in experiment [4] (setting [9]); -0.28 in experiment [8]; 2.01 in experiment [5]. Moreover, the deltapEC50 in experiment [1] is above 0.4. Besides, the pKb in experiment [6] stood at 4.53.

With `COC(=O)CCCn1cc(-c2ccc(C)nc2-c2ccc3c(c2)C(=O)N(C)C3)cn1`, the log(activity) in experiment [2] is 1.05; in experiment [3] it was 1.04; in experiment [4] (setting [9]), 0.18; in experiment [5] it was 1.94. Further, in experiment [6], the pKb worked out at 4.73.

With `Cc1ccc(-c2cnn(CCCCC(=O)O)c2)c(-c2ccc3c(c2)C(=O)N(C)C3)n1`, in experiment [1], the deltapEC50 is above 0.4.

`COC(=O)CCn1cc(-c2ccc(C)nc2-c2ccc3c(c2)C(=O)N(C)C3)cn1`: the log(activity) was 0.73 in experiment [2], 1.08 in experiment [3], -0.28 in experiment [4] and 1.46 in experiment [5]. The deltapEC50 in experiment [1] was above 0.4. In experiment [6], the pKb is 4.57.

On to `Cc1cnc(-c2ccc3c(c2)C(=O)N(C)C3)c(-c2cnn(CC3CCCC3)c2)c1`, for which the log(activity) in experiment [7] amounted to 2.3; in experiment [2], 2.17; in experiment [3], 2.12; in experiment [4] (setting [9]), 1.17; in experiment [8] (setting [9]), 0.08; in experiment [5], 2.53. The pKb in experiment [6] stood at 4.73.

Consider `Cc1ccc(-c2cnn(CC3CCCC3)c2)c(-c2ccc3c(c2)C(=O)N(CC#N)C3)n1`, for which the log(activity) in experiment [2] was 1.55; in experiment [3], 1; in experiment [4] (setting [9]), 0.48; in experiment [5], 1.94. This molecule came in with a negative logarithm of the Kb (pKb) in experiment [6] of 5.26.

The molecule `Cc1ccc(-c2cnn(CCC(N)=O)c2)c(-c2ccc3c(c2)C(=O)N(C)C3)n1` returned a deltapEC50 in experiment [1] above 0.4.

Turning to `Cc1ccc(-c2cnn(CC3CCCC3)c2)c(-c2ccc3c(c2)C(=O)N(C)C3)n1`, the log(activity) in experiment [7] stood at 1.89; in experiment [2], 1.58; in experiment [3] it was 0.53; in experiment [4] (setting [9]), 0.25; in experiment [8] (setting [9]), 0.02; in experiment [5], 1.74. The molecule also yielded a pKb in experiment [6] of 5.86.

With `Cc1ccc(-c2cnn(CCC#N)c2)c(-c2ccc3c(c2)C(=O)N(C)C3)n1`, the log(activity) is 0.88 in experiment [2], 0.84 in experiment [3], -0.64 in experiment [4] and 1.49 in experiment [5]. The same molecule returned a deltapEC50 in experiment [1] above 0.4. In experiment [6], this molecule had a pKb of 4.74.
